# In patent US20220135540A1, “POLYMORPHS OF AN FXR AGONIST” (Eli Lilly and Company, priority 2020, published 2022):
# Columns and labels:
# [1] = Tissue distribution (liver versus plasma and other tissues); assay type: in vivo; conditions: liver relative to plasma, heart and skin, liver vs plasma, kidney, lungs, read-out: concentration in the liver relative to plasma, kidney, lungs, heart, and skin
# Source text: Compound I is preferentially distributed to the liver, which, without being bound by theory, would allow the compound to reach its FXR target in the liver with fewer off-target adverse effects. For example, Compound I has an approximately 20-fold higher concentration in the liver than in the plasma, kidney, lungs, heart, and skin. This trait would likely be particularly beneficial for vulnerable populations, such as children, the elderly, and people with comorbidities.
# [2] = Moisture sorption analysis (MSA); assay type: physicochemical; conditions: for hygroscopicity (overall, from moisture sorption data): 5% to 95% RH; for weight change (loss) between ~95% RH and ~5% RH: desorption step ~95% to ~5% RH; for weight loss upon equilibration at ~5% RH: moisture sorption; for weight change (gain) between ~5% and ~95% RH: sorption step ~5% to ~95% RH
# Method: MSA analyses were performed using a VTI SGA-100 Vapor Sorption Analyzer. Sorption and desorption data were collected over a range of 5% to 95% relative humidity (RH) at 10% RH intervals under a nitrogen purge. Samples were not dried prior to analysis. Equilibrium criteria used for analysis were less than 0.0100% weight change in 5 minutes, with a maximum equilibration time of 3 hours if the weight criterion was not met. Data were not corrected for the initial moisture content of the samples. NaCl and PVP were used as calibration standards.
# [3] = Solid form stability when stressed at high relative humidity; assay type: physicochemical; conditions: ~94% RH for 10 days
# Method: Polymorphic Form I of Compound I was obtained by slurrying of Compound I in ethyl acetate or methanol at room temperature, or in a mixture IPA:water 1:1 at ˜58° C. Additionally, Form I was obtained by slow cooling of a solution of Compound I in acetonitrile.
# [4] = Slurry interconversion of polymorphic forms; assay type: physicochemical
# Method: Slurry interconversion experiments were performed at temperatures ranging from room temperature to ˜81° C. Solvent systems used for the study were nitromethane, acetonitrile, and a THF/heptane 1:2 (v/v) mixture.
compound,measurement,setting,value
"Cn1cc(C(=O)O)c2ccc(N3CCC(OCc4c(-c5c(Cl)cccc5Cl)noc4C4CC4)CC3)cc21 [Compound I, 6-(4-((5-cyclopropyl-3-(2,6-dichlorophenyl)isoxazol-4-yl)methoxy)piperidin-1-yl)-1-methyl-1H-indole-3-carboxylic acid]",Kp,[1],~20
"Cn1cc(C(=O)O)c2ccc(N3CCC(OCc4c(-c5c(Cl)cccc5Cl)noc4C4CC4)CC3)cc21 [Form I, 6-(4-((5-cyclopropyl-3-(2,6-dichlorophenyl)isoxazol-4-yl)methoxy)piperidin-1-yl)-1-methyl-1H-indole-3-carboxylic acid]","hygroscopicity (overall, from moisture sorption data)",[2],low hygroscopicity
same,weight change (loss) between ~95% RH and ~5% RH,[2],~0.4 wt %
same,weight loss upon equilibration at ~5% RH,[2],~0.1 wt %
same,weight change (gain) between ~5% and ~95% RH,[2],~0.4 wt %
same,stability as a solid form under humidity stress,[3],remained stable
"Cn1cc(C(=O)O)c2ccc(N3CCC(OCc4c(-c5c(Cl)cccc5Cl)noc4C4CC4)CC3)cc21 [Form II, 6-(4-((5-cyclopropyl-3-(2,6-dichlorophenyl)isoxazol-4-yl)methoxy)piperidin-1-yl)-1-methyl-1H-indole-3-carboxylic acid]","hygroscopicity (overall, from moisture sorption data)",[2],low hygroscopicity
same,weight change (loss) between ~95% RH and ~5% RH,[2],negligible weight change
same,weight loss upon equilibration at ~5% RH,[2],~0.6 wt %
same,weight change (gain) between ~5% and ~95% RH,[2],negligible weight change
same,relative stability among polymorphic forms,[4]; ambient temperature and elevated temperature up to ~81° C.,most stable form
"Cn1cc(C(=O)O)c2ccc(N3CCC(OCc4c(-c5c(Cl)cccc5Cl)noc4C4CC4)CC3)cc21 [I, II, III, IV, V, VI, VII]",XRPD Result of slurry interconversion,"[4]; ACN, RT, 1 day, ~5 mg each",Form II
same,XRPD Result of slurry interconversion,"[4]; Nitromethane, RT, 3 days, ~5 mg each",Form II
same,XRPD Result of slurry interconversion,"[4]; Nitromethane, ~78-81° C., 3 days, ~5 mg each",Form II
"Cn1cc(C(=O)O)c2ccc(N3CCC(OCc4c(-c5c(Cl)cccc5Cl)noc4C4CC4)CC3)cc21 [I, II, III, V]",XRPD Result of slurry interconversion,"[4]; ACN, ~66-69° C., 1 day, ~5 mg each",Form II
"Cn1cc(C(=O)O)c2ccc(N3CCC(OCc4c(-c5c(Cl)cccc5Cl)noc4C4CC4)CC3)cc21 [I, II, VI]",XRPD Result of slurry interconversion,"[4]; THF/heptane 1:2, ~61° C., 1 day, ~15 mg each",Form II
same,XRPD Result of slurry interconversion,"[4]; THF:heptane 1:2, RT, 1 day, ~15 mg each",Form II
